# From article PMC11173104, “Synthesis and Antioxidant Activity of N-Benzyl-2-[4-(aryl)-1H-1,2,3-triazol-1-yl]ethan-1-imine Oxides” (International Journal of Molecular Sciences, 2024)
# Tests used:
# [1] = Inhibition of AAPH-induced linoleic acid lipid peroxidation (ILP); conditions: 100 µM, 37 °C, pH 7.4
# Excerpt: In our studies, the water-soluble azo AAPH was used as a thermal free radical initiator to induce the oxidative changes of linoleic acid to conjugated diene hydroperoxide. All nitrones except for 10c presented inhibition values (75–87%) lower than the common standard Trolox (93%) (Table 1). […] Lipophilicity seems to play a significant role related to a positive result since the inserted methyl group in compound 10b (75%) increases the lipophilicity of compound 10d driving it to higher inhibition (87%).
# Ten microliters of the 16 mM linoleic acid sodium salt solution were added to the UV cuvette containing 0.93 mL of the 0.05 M phosphate buffer, pH 7.4 prethermostated at 37 °C. The oxidation reaction was initiated at 37 °C under air by the addition of 50 μL of the 40 mM AAPH solution. Oxidation was carried out in the presence of 10 μL of the compounds’ stock 10 mM solution in DMSO, in the assay. Lipid oxidation was measured in the presence of the same level of DMSO. The rate of oxidation at 37 °C was recorded as the absorption values at 234 nm and compared to Trolox (Table 1).
# [2] = ABTS•+ decolorization assay in ethanolic solution; conditions: 100 µM; 734 nm, 1 min
# Protocol: ABTS^•+ was produced according to the described procedure as follows. An ABTS stock solution in water (7 mM) was mixed with potassium persulfate (2.45 mM) and left in a dark at room temperature for 12–16 h before use. A total of 10 µL of the investigated compounds were added to ethanol together with the cationic radical. The results were taken at 734 nm, after 1 min of the mixing procedure. Trolox was used as a positive standard (Table 1).
# [3] = Reducing activity (RA): interaction with the stable free radical DPPH; conditions: 100 µM
# Protocol: DPPH is a stable free radical, advantageous for testing compounds in an ethanolic solution, which in its oxidized form presents a maximum absorbance at about 517 nm. The DPPH method is independent of the molecule’s polarity. […] Nitrones 10b, 10c, and 10d highly interact with DPPH (64.5–81%) after 20 min, whereas 10a presents a lower value. In general, the insertion of a substituent increases the reducing activity (RA). […] It seems that an acceptor, such as a fluorine atom, with small molar refractivity (MR) in the para position offers antioxidant ability. […] RA is not influenced by lipophilicity within this nitrones group. The interaction values are increased for all after 60 min (78–81%), showing time dependency. For the sake of comparison, NDGA was used as a standard reference compound.
# To an ethanolic solution of DPPH (0.05 mM) in absolute ethanol, 10 µL from a stock solution (10 mM) in the DMSO of the compounds was added. The mixture was shaken vigorously and allowed to stand for 20 min or 60 min; absorbance at 517 nm was determined spectrophotometrically and the percentage of activity was calculated. All tests were undertaken on three or four replicates and the results were averaged (Table 1). NDGA was used as a reference compound.
# [4] = Competition with DMSO for hydroxyl radicals; conditions: 100 µM; Fe3+/ascorbic acid, 37 °C, 30 min
# Protocol: Hydroxyl (^•OH) free radical is counted as the most toxic. As a result, it reacts with important biological molecules such as DNA, lipids, or carbohydrates. We found it interesting to test the scavenging activity of the compounds in competition with DMSO.
# The hydroxyl radicals were produced by the Fe^3+/ascorbic acid system and detected by the determination of the formaldehyde produced from the oxidation of DMSO. EDTA (0.1 mM), Fe^3+ (167 μM), DMSO (33 mM) in phosphate buffer (50 mM, pH 7.4), the tested compounds (100 µM) and ascorbic acid (10 mM) were inserted, mixed, and incubated in test tubes at 37 °C for 30 min. The reaction was stopped by CCl3COOH (17% w/v) and the % scavenging activity of the nitrones for hydroxyl radicals was recorded. Trolox was used as a positive control (Table 1).
# [5] = target: T1, soybean LOX (Glycine max, UniProt P08170); experiment: Soybean LOX inhibition in vitro (UV absorbance-based); assay type: biochemical; conditions: for IC50: Tris pH 9, sodium linoleate
# T1 construct: purchased Aldrich Chemical Co., Milwaukee, WI, USA
# T1 sequence (P08170 1-839): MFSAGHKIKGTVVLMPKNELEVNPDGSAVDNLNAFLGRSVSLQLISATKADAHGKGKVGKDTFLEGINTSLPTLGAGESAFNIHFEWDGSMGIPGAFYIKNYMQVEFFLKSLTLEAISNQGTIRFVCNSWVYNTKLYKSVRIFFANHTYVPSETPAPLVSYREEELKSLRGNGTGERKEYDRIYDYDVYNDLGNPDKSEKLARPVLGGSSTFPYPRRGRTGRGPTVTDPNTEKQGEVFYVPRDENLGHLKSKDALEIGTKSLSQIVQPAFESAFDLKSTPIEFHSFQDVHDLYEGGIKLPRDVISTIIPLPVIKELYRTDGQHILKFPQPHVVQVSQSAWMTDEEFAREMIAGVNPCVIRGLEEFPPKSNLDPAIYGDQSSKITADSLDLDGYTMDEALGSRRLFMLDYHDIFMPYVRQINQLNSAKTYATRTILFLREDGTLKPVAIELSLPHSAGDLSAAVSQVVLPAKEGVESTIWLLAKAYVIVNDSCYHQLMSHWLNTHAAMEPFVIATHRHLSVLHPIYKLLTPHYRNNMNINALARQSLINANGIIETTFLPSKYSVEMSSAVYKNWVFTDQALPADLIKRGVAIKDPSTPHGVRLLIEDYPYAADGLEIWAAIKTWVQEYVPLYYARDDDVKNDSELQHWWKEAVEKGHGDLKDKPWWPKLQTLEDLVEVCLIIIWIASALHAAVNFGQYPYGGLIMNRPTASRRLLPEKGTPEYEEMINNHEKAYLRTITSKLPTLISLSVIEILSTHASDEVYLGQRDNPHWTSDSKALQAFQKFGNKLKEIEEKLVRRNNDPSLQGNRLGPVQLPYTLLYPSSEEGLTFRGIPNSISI
# Excerpt: The appropriate stimulation of neutrophils cleaves arachidonic acid (AA) from membrane phospholipids, producing leukotrienes through lipoxygenase. Leukotriene B4 (LTB4) is a potent mediator of inflammation, considered to be important in the pathogenesis of neutrophil-mediated inflammatory diseases with a marked relation to the severity of cardiovascular diseases, stroke, and cancer. The enzyme lipoxygenase catalyzes the first two steps in the metabolism of AA, which is cleaved from membrane phospholipids to leukotrienes (LTB4). LTB4 generation is important in the pathogenesis of neutrophil-mediated inflammatory diseases.
# The tested compounds dissolved in DMSO were incubated at rt with sodium linoleate (0.1 mL) and 0.2 mL of the enzyme solution (1/9 × 10^−4 w/v in saline) in buffer Tris pH 9.
# [6] = design: method as in PMID 36670898; conditions: previous work; cited from earlier work
SMILES,ILP (%) [1] [%],ABTS•+ (%) [2] [%],RA (%) 20 min [3],RA (%) 60 min [3],Scavenging Activity for HO• (%) [4],IC50 [5] [µM],melting point [°C],hydroxyl radical scavenging (%) [6] [%],inhibition at 100 µM ([5]; at 100 µM) [%]
"[O-][N+](=CCn1cc(-c2ccc(F)cc2)nn1)Cc1ccccc1 [Nitrone 10b, N-Benzyl-2-[4-(4-fluorophenyl)-1H-1,2,3-triazol-1-yl]ethan-1-imine Oxide]",75,46,81/81%,81/81%,no,62.5,129 to 131,,
"Cc1c(C)c2c(c(C)c1O)CCC(C)(C(=O)O)O2 (stereo not drawn) [Trolox, reference compound]",93,91,,,73%,,,88,
"CC(Cc1ccc(O)c(O)c1)C(C)Cc1ccc(O)c(O)c1 (stereo not drawn) [NDGA, nordihydroguaiaretic acid, reference compound]",,,88%,96%,,,,,
"Cc1cc(-c2cn(CC=[N+]([O-])Cc3ccccc3)nn2)ccc1F [Nitrone 10d, N-Benzyl-2-[4-(4-fluoro-3-methylphenyl)-1H-1,2,3-triazol-1-yl]ethan-1-imine Oxide]",87,23,64.4%,79.5%,no,,131 to 133,,45
"[O-][N+](=CCn1cc(-c2ccc(F)cc2F)nn1)Cc1ccccc1 [Nitrone 10c, N-Benzyl-2-[4-(2,4-difluorophenyl)-1H-1,2,3-triazol-1-yl]ethan-1-imine Oxide]",,23,79/79%,79/79%,no,10,112 to 113,,
"[O-][N+](=CCn1cc(-c2ccccc2)nn1)Cc1ccccc1 [Nitrone 10a, N-Benzyl-2-(4-phenyl-1H-1,2,3-triazol-1-yl)ethan-1-imine Oxide]",81,8,57%,78%,no,85,134 to 136,,
